Counter-ions that a name gives are not always drawn. Like-named read-outs stand apart in the source and are kept apart here.
How the values were obtained:
[1] = test system: alkaline protease from shipworm bacterium; assay: Inhibition of alkaline protease: preincubation with inhibitor, then azocasein assay; assay type: biochemical, bacterial symbiont of the shipworm Psiloteredo healdi; conditions: for Activity (%): assay 42° C., pH 9.0, 0.2M NaCl
Procedure: The protease purification was monitored by assaying for proteolytic activity and protein concentration after each step. Proteolytic activity was determined in duplicate assays employing azocasein for the substrate, as described by Cotta et al. [Applied Environmental Microbiology, vol. 52, 51-58 (1986)]. Units represent μg of azocasein digested per hour. Protein concentrations were determined by the method of Bradford [Analytical Biochemistry, […] (1976)] with bovine serum albumin as a standard.
Several compounds known to inhibit various proteases were examined for their effect on the activity of the purified enzyme from Example 2 (Table II). The protease was incubated prior to assay for 1 hr at 25° C. All assays were measured at 42° C. and pH 9.0 in 0.2M NaCl buffered with 100 mM bis Tris propane.

[2] = test system: alkaline protease from shipworm bacterium; assay: as above; assay type: biochemical, bacterial symbiont of the shipworm Psiloteredo healdi; conditions: inhibitor 0.1%; preincubation 1 hr at 42° C.; assay 42° C., pH 9.0, 0.2M NaCl
[3] = inhibitor 0.1 mM, preincubated 1 hr at 25° C., 100% = 154 units/ml
[4] = inhibitor 10 mM, preincubated 1 hr at 25° C., 100% = 154 units/ml
[5] = inhibitor 1 mM, preincubated 1 hr at 25° C., 100% = 154 units/ml

| Structure (SMILES) | Activity (%) [1, 3] [%] | Activity (%) [1, 4] [%] | effect on the activity of the protease (in words) [1] | Activity (%) [1, 5] [%] | also measured |
| --- | --- | --- | --- | --- | --- |
| [Cl][Cu][Cl] [CuCl2] | 97 | 94 |  |  |  |
| O=C(O)CN(CCN(CC(=O)O)CC(=O)O)CC(=O)O [EDTA (disodium salt), EDTA] |  | 102 | little effect |  |  |
| [Cl][Hg][Cl] [HgCl2] | 66 | 8 |  |  |  |
| NC(=O)CI [Iodoacetamide] | 102 | 100 | little effect | 102 |  |
| Cc1ccc2ccc3ccc(C)nc3c2n1 [Neocuproine HCl] |  | 99 | little effect |  |  |
| O=S(=O)(F)Cc1ccccc1 [Phenylmethanesulphonyl fluoride] | 93 | 102 | does not inhibit activity | 98 |  |
| O.O.O.O.[Na+].[O-]B1OO1 [Sodium perborate tetrahydrate] |  |  |  |  | Activity (%) ([1]; inhibitor 0.1%, preincubation 1 hr at 25° C.): 119%; effect on the activity of the protease (in words) ([1]; listed as perborate): protease activity stimulation; effect on the activity of the protease (in words) ([1]; listed as sodium perborate): little effect; effect on the activity of the protease (in words) ([1]; listed as sodium perborate tetrahydrate): apparent enhancement of protease activity; Activity (%) [2]: 117% |
| Cc1ccc(S(=O)(=O)N[C@@H](CCCCN)C(=O)CCl)cc1 [TLCK, tosyl-1-lysine chloromethyl ketone] | 47 | 7 | significantly reduces the activity at low concentrations and abolishes it at high concentrations | 20 |  |
| Cc1ccc(S(=O)(=O)N[C@@H](Cc2ccccc2)C(=O)CCl)cc1 [TPCK, tosylamide phenylethyl chloromethyl ketone] | 94 | 100 | unaffected | 99 |  |
| NCCCCCC(=O)O [ε-Amino-n-caproic acid] |  |  | unaffected |  | Activity (%) ([1]; inhibitor 100 μg, preincubated 1 hr at 25° C.): 101%; Activity (%) ([1]; inhibitor 500 μg, preincubated 1 hr at 25° C.): 99% |

— patent US5312749A, “Industrial alkaline protease from shipworm bacterium” (The United States of America as represented by the …, priority 1992, dated 1994)
